The NIST ThermoML archive (doi:10.1016/j.jct.2019.03.040)
Numbers after ± are expanded uncertainties.

Tests used:
[1] = Liquid; for thermal diffusivity: 101.33 kPa, Laser flash apparatus
[2] = molar heat capacity at constant pressure; conditions: 101.33 kPa, Liquid, Small sample (50 mg) DSC

CCOC(=O)CCC(C)=O [ethyl levulinate]
Conditions | Critical pressure [kPa] | Critical temperature [K] | molar heat capacity at constant pressure [J/K/mol] | thermal diffusivity [m2/s]
[1], 303.15 K | – | – | – | 7.9e-08 ± 4.2e-09
[1], 313.15 K | – | – | – | 7.8e-08 ± 4.2e-09
[1], 323.15 K | – | – | – | 7.7e-08 ± 4.1e-09
[1], 333.15 K | – | – | – | 7.6e-08 ± 4.1e-09
[1], 343.15 K | – | – | – | 7.5e-08 ± 4e-09
[1], 353.15 K | – | – | – | 7.4e-08 ± 4e-09
[1], 363.15 K | – | – | – | 7.25e-08 ± 3.9e-09
[1], 373.15 K | – | – | – | 7.15e-08 ± 3.8e-09
[1], Resistive pulse heating | 2970 ± 90 | 669 ± 7 | – | –
[2], 302.98 K | – | – | 275.22 ± 6.8 | –
[2], 303.48 K | – | – | 275.79 ± 6.8 | –
[2], 303.98 K | – | – | 276.51 ± 6.8 | –
[2], 304.48 K | – | – | 276.37 ± 6.8 | –
[2], 304.98 K | – | – | 275.65 ± 6.8 | –
[2], 305.48 K | – | – | 276.08 ± 6.8 | –
[2], 305.98 K | – | – | 275.65 ± 6.8 | –
[2], 306.48 K | – | – | 276.08 ± 6.8 | –
[2], 306.98 K | – | – | 276.95 ± 6.8 | –
[2], 307.48 K | – | – | 277.24 ± 6.8 | –
[2], 307.98 K | – | – | 277.67 ± 6.8 | –
[2], 308.48 K | – | – | 277.52 ± 6.8 | –
[2], 308.98 K | – | – | 277.38 ± 6.8 | –
[2], 309.48 K | – | – | 277.67 ± 6.8 | –
[2], 309.98 K | – | – | 277.96 ± 6.8 | –
[2], 310.48 K | – | – | 278.53 ± 6.8 | –
[2], 310.98 K | – | – | 278.82 ± 6.8 | –
[2], 311.48 K | – | – | 277.96 ± 6.8 | –
[2], 311.98 K | – | – | 278.24 ± 6.8 | –
[2], 312.48 K | – | – | 277.24 ± 6.8 | –
[2], 312.98 K | – | – | 278.53 ± 6.8 | –
[2], 313.48 K | – | – | 278.82 ± 6.8 | –
[2], 313.98 K | – | – | 279.25 ± 6.8 | –
[2], 314.48 K | – | – | 279.25 ± 6.8 | –
[2], 314.98 K | – | – | 279.25 ± 6.8 | –
[2], 315.48 K | – | – | 278.53 ± 6.8 | –
[2], 315.98 K | – | – | 279.25 ± 6.8 | –
[2], 316.48 K | – | – | 278.68 ± 6.8 | –
[2], 316.98 K | – | – | 278.97 ± 6.8 | –
[2], 317.48 K | – | – | 279.69 ± 6.9 | –
[2], 317.98 K | – | – | 279.4 ± 6.8 | –
[2], 318.48 K | – | – | 279.83 ± 6.9 | –
[2], 318.98 K | – | – | 279.69 ± 6.9 | –
[2], 319.48 K | – | – | 279.83 ± 6.9 | –
[2], 319.98 K | – | – | 279.54 ± 6.9 | –
[2], 320.48 K | – | – | 280.55 ± 6.9 | –
[2], 320.98 K | – | – | 280.98 ± 6.9 | –
[2], 321.48 K | – | – | 280.7 ± 6.9 | –
[2], 321.98 K | – | – | 279.97 ± 6.9 | –
[2], 322.48 K | – | – | 280.55 ± 6.9 | –
[2], 322.98 K | – | – | 280.84 ± 6.9 | –
[2], 323.48 K | – | – | 281.42 ± 6.9 | –
[2], 323.98 K | – | – | 281.13 ± 6.9 | –
[2], 324.48 K | – | – | 281.42 ± 6.9 | –
[2], 324.98 K | – | – | 281.56 ± 6.9 | –
[2], 325.48 K | – | – | 281.27 ± 6.9 | –
[2], 325.98 K | – | – | 281.99 ± 6.9 | –
[2], 326.48 K | – | – | 282.57 ± 6.9 | –
[2], 326.98 K | – | – | 282.14 ± 6.9 | –
[2], 327.48 K | – | – | 282.43 ± 6.9 | –
[2], 327.98 K | – | – | 282.57 ± 6.9 | –
[2], 328.48 K | – | – | 283.29 ± 6.9 | –
[2], 328.98 K | – | – | 283.15 ± 6.9 | –
[2], 329.48 K | – | – | 282.86 ± 6.9 | –
[2], 329.98 K | – | – | 283.29 ± 6.9 | –
[2], 330.48 K | – | – | 283.87 ± 6.9 | –
[2], 330.98 K | – | – | 284.01 ± 6.9 | –
[2], 331.48 K | – | – | 284.01 ± 6.9 | –
[2], 331.98 K | – | – | 284.16 ± 6.9 | –
[2], 332.48 K | – | – | 284.44 ± 6.9 | –
[2], 332.98 K | – | – | 284.16 ± 6.9 | –
[2], 333.48 K | – | – | 284.3 ± 6.9 | –
[2], 333.98 K | – | – | 284.01 ± 6.9 | –
[2], 334.48 K | – | – | 284.88 ± 6.9 | –
[2], 334.98 K | – | – | 285.74 ± 7.1 | –
[2], 335.48 K | – | – | 285.6 ± 7.1 | –
[2], 335.98 K | – | – | 285.89 ± 7.1 | –
[2], 336.48 K | – | – | 285.6 ± 7.1 | –
[2], 336.98 K | – | – | 285.89 ± 7.1 | –
[2], 337.48 K | – | – | 285.74 ± 7.1 | –
[2], 337.98 K | – | – | 285.6 ± 7.1 | –
[2], 338.48 K | – | – | 286.17 ± 7.1 | –
[2], 338.98 K | – | – | 286.32 ± 7.1 | –
[2], 339.48 K | – | – | 286.32 ± 7.1 | –
[2], 339.98 K | – | – | 286.03 ± 7.1 | –
[2], 340.48 K | – | – | 286.32 ± 7.1 | –
[2], 340.98 K | – | – | 285.74 ± 7.1 | –
[2], 341.48 K | – | – | 286.17 ± 7.1 | –
[2], 341.98 K | – | – | 286.46 ± 7.1 | –
[2], 342.48 K | – | – | 286.75 ± 7.1 | –
[2], 342.98 K | – | – | 285.89 ± 7.1 | –
[2], 343.48 K | – | – | 286.61 ± 7.1 | –
[2], 343.98 K | – | – | 286.9 ± 7.1 | –
[2], 344.48 K | – | – | 287.76 ± 7.1 | –
[2], 344.98 K | – | – | 288.34 ± 7.1 | –
[2], 345.48 K | – | – | 287.47 ± 7.1 | –
[2], 345.98 K | – | – | 288.63 ± 7.1 | –
[2], 346.48 K | – | – | 288.19 ± 7.1 | –
[2], 346.98 K | – | – | 287.9 ± 7.1 | –
[2], 347.48 K | – | – | 288.05 ± 7.1 | –
[2], 347.98 K | – | – | 288.48 ± 7.1 | –
[2], 348.48 K | – | – | 288.48 ± 7.1 | –
[2], 348.98 K | – | – | 288.19 ± 7.1 | –
[2], 349.48 K | – | – | 289.2 ± 7.1 | –
[2], 349.98 K | – | – | 289.2 ± 7.1 | –
[2], 350.48 K | – | – | 289.35 ± 7.1 | –
[2], 350.98 K | – | – | 289.2 ± 7.1 | –
[2], 351.48 K | – | – | 289.63 ± 7.1 | –
[2], 351.98 K | – | – | 289.2 ± 7.1 | –
[2], 352.48 K | – | – | 289.78 ± 7.1 | –
[2], 352.98 K | – | – | 290.5 ± 7.1 | –
[2], 353.48 K | – | – | 289.78 ± 7.1 | –
[2], 353.98 K | – | – | 290.36 ± 7.1 | –
[2], 354.48 K | – | – | 290.21 ± 7.1 | –
[2], 354.98 K | – | – | 289.92 ± 7.1 | –
[2], 355.48 K | – | – | 289.92 ± 7.1 | –
[2], 355.98 K | – | – | 289.78 ± 7.1 | –
[2], 356.48 K | – | – | 289.92 ± 7.1 | –
[2], 356.98 K | – | – | 291.08 ± 7.1 | –
[2], 357.48 K | – | – | 290.93 ± 7.1 | –
[2], 357.98 K | – | – | 290.64 ± 7.1 | –
[2], 358.48 K | – | – | 290.93 ± 7.1 | –
[2], 358.98 K | – | – | 290.79 ± 7.1 | –
[2], 359.48 K | – | – | 291.51 ± 7.2 | –
[2], 359.98 K | – | – | 292.09 ± 7.2 | –
[2], 360.48 K | – | – | 291.65 ± 7.2 | –
[2], 360.98 K | – | – | 292.09 ± 7.2 | –
[2], 361.48 K | – | – | 292.52 ± 7.2 | –
[2], 361.98 K | – | – | 291.51 ± 7.2 | –
[2], 362.48 K | – | – | 292.66 ± 7.2 | –
[2], 362.98 K | – | – | 292.81 ± 7.2 | –
[2], 363.48 K | – | – | 293.82 ± 7.2 | –
[2], 363.98 K | – | – | 293.53 ± 7.2 | –
[2], 364.48 K | – | – | 293.67 ± 7.2 | –
[2], 364.98 K | – | – | 294.25 ± 7.2 | –
[2], 365.48 K | – | – | 294.39 ± 7.2 | –
[2], 365.98 K | – | – | 295.4 ± 7.2 | –
[2], 366.48 K | – | – | 294.54 ± 7.2 | –
[2], 366.98 K | – | – | 295.83 ± 7.2 | –
[2], 367.48 K | – | – | 295.55 ± 7.2 | –
[2], 367.98 K | – | – | 295.98 ± 7.2 | –
[2], 368.48 K | – | – | 295.83 ± 7.2 | –
[2], 368.98 K | – | – | 296.84 ± 7.2 | –
[2], 369.48 K | – | – | 296.84 ± 7.2 | –
[2], 369.98 K | – | – | 296.27 ± 7.2 | –
[2], 370.48 K | – | – | 296.99 ± 7.2 | –
[2], 370.98 K | – | – | 296.27 ± 7.2 | –
[2], 371.48 K | – | – | 296.55 ± 7.2 | –
[2], 371.98 K | – | – | 296.84 ± 7.2 | –
[2], 372.48 K | – | – | 296.84 ± 7.2 | –
[2], 372.98 K | – | – | 296.84 ± 7.2 | –
[2], 373.48 K | – | – | 296.99 ± 7.2 | –
[2], 373.98 K | – | – | 297.13 ± 7.2 | –
